“Also recorded” adds a separate entry of the source. Where two headings read alike, the source gives them in different places. Starred links: 1 amine or outer side, 2 acyl side, 3 side chain; linkers in the order of their positions; H or OH if unused. Positions of bridges follow the written chain, without caps; N, C: chain ends. Non-standard residues stand in square brackets, D forms with d. Residues, ends and D or L forms follow the SMILES beside them. Chains are numbered I, II in the order given. Actinocin(9to1) = Cc1c2oc3c(C)ccc(C(=O)[*:1])c3nc-2c(C(=O)[*:2])c(N)c1=O; NMeV = CN[C@H](C(=O)O)C(C)C; Sar = CNCC(=O)O
Tests used:
DNA = conditions: cited from earlier work; for published binding constant: bulk genomic DNA (average)
[1] = system: 256 different 4 bp sequences flanking the UL9 recognition site; type: binding, Herpes Simplex Virus
[2] = system: oligonucleotides containing the screening sequence (SEQ ID NO:601) flanked by a test sequence (SEQ ID NO:605 to SEQ ID NO:613); type: binding, Herpes Simplex Virus

CS[C@H]1SC[C@H]2C(=O)N(C)[C@@H](C(C)C)C(=O)OC[C@@H](NC(=O)c3cnc4ccccc4n3)C(=O)N[C@@H](C)C(=O)N(C)[C@@H]1C(=O)N(C)[C@@H](C(C)C)C(=O)OC[C@@H](NC(=O)c1cnc3ccccc3n1)C(=O)N[C@@H](C)C(=O)N2C [echinomycin]
reported preferred DNA binding sequence (DNA; literature): [(A/T)CGT]/[ACG(A/T)]

Cc1c2oc3c(C)ccc(C(=O)N[C@@H]4C(=O)N[C@H](C(C)C)C(=O)N5CCC[C@H]5C(=O)N(C)CC(=O)N(C)[C@@H](C(C)C)C(=O)O[C@@H]4C)c3nc-2c(C(=O)N[C@@H]2C(=O)N[C@H](C(C)C)C(=O)N3CCC[C@H]3C(=O)N(C)CC(=O)N(C)[C@@H](C(C)C)C(=O)O[C@@H]2C)c(N)c1=O [actinomycin D, Actinomycin D] (I: T[dV]P[Sar][NMeV] / II: T[dV]P[Sar][NMeV]; ester I:1-I:C, II:1-II:C; linker I:N-II:N via Actinocin(9to1))
reported preferred DNA binding sequence (DNA; literature): dGdC
dinucleotide preference [1]: GC, particularly in the N1N2 position
mean r % score for all oligonucleotides [1]: 67%
overall sequence preference in the screen of all 256 sequences [1]: preference for binding GC-rich sequences; also recorded: prefers GC-rich sequences over AT-rich sequences
position effect of a single base in the test site [1]: a single base in any particular position has little impact on the binding
sequence binding preference [1]: a preference for binding GC-rich oligonucleotides has been observed; also recorded: this binding preference is even more apparent
test sequences at which UL9 binding to the screening sequence is preferentially disrupted [2]: preferentially disrupts the binding of UL9-COOH to the oligonucleotides UL9 CCCG (SEQ ID NO:605) and UL9 GGGC (SEQ ID NO:606); also recorded: preferentially disrupts the binding of UL9 to the oligonucleotides UL9 CCCG and UL9 GGGC

COc1cccc2c1C(=O)c1c(O)c3c(c(O)c1C2=O)C[C@@](O)(C(=O)CO)C[C@@H]3O[C@H]1C[C@H](N)[C@H](O)[C@H](C)O1 [Doxorubicin]
effect on DNA:protein complexes [2]: most DNA:protein complexes are nearly completely disrupted, with UL9 polyT and UL9ATAT showing some DNA still complexed with protein
effect on UL9 binding to the screening sequence [2]: strongly affected; also recorded: more mildly affected; also recorded: effects similar to those observed at 15 μM were also observed
test sequences at which UL9 binding to the screening sequence is preferentially disrupted [2]: preferentially disrupts the binding of UL9 to the oligonucleotides UL9 polyT, UL9 GGGC, oriEco2, and oriEco3

Cn1cc(NC(=O)c2cc(NC(=O)c3cc(NC=O)cn3C)cn2C)cc1C(=O)NCCC(=N)N [distamycin, Distamycin A]
published binding constant (DNA): about 2×10^5 M^−1
published binding constant (DNA; listed as dista): 200000 M⁻¹
KA (binding to DNA) (DNA; literature): 200000 M⁻¹
reported preferred DNA binding sequence (DNA; literature): non-alternating AT-rich sequences
Ave. rank (actual) of the 18 sequences of the second consensus sequence [1]: 29
Average rank (actual) of the 16 sequences of the first consensus sequence [1]: 17
overall sequence preference in the screen of all 256 sequences [1]: preference for binding AT-rich sequences
second consensus sequence, favoured bases and order [1]: A/G/C and G/C/A and G/C and A>G=C and C>A=G and G=C
effect on DNA:protein complexes / free probe [2]: most of the DNA:protein complexes are intact (top band) with free probe appearing in the UL9 polyT and UL9 polyA lanes, and some free probe appearing in the UL9 ATAT lane; also recorded: free probe can be seen in the UL9 polyT and UL9 polyA lanes; also recorded: the DNA:protein in the polyT, UL9 polyA and UL9 ATAT lanes are near completely disrupted while some DNA:protein complexes in the other lanes persist
test sequences at which UL9 binding to the screening sequence is preferentially disrupted [2]: preferentially disrupts binding to the test sequences UL9 polyT, UL9 polyA and, to a lesser extent, UL9ATAT; also recorded: preferentially disrupts binding to UL9 polyT, UL9 polyA and UL9 ATAT

calicheamicin
reported preferred DNA binding sequence (DNA; literature): TCCT/AGGA
